Here are results for seven compounds from PMC10144346, “Novel PD-L1-Targeted Phenyl-Pyrazolone Derivatives with Antioxidant Properties” (Molecules, 2023).

In data set [1] the test system is CTLL-2 cells. In words: CTLL-2 cell proliferation reactivation assay (CyQUANT). In kind it is cell-based. Conditions: for IC50: CTLL-2 cells with rhPD-L1 chimera, 72 h, n = 3. From the text:
Next, we investigated the capacity of the compound to reactivate proliferation of CTLL-2 cells. These cytotoxic T cells expressing […] are maintained in a dormant state when they are cultivated in the presence of recombinant hPD-L1; their proliferation, monitored by flow-cytometry (using the CyQuant cell proliferation test), is reactivated when they are exposed to a PD-L1 inhibitor, thus mimicking a reactivation of the immune system. […] The replacement of the Me substituent of compound 2 with an ethyl group abolished the capacity of the product to promote CTLL-2 cell proliferation. The same result was obtained with a compound bearing a […] chain instead of the ethyl chain (not shown).
The CyQUANT cell proliferation kit (Thermofischer, Waltham, MA, USA) was used to evaluate the growth of the CTLL-2 cell line (ATCC). Cells were prepared by growing them in the presence or absence of rhPD-L1 chimera (R&D) plus the test compound, and then transferring them to microplates for assay according to manufacturer’s instructions (Molecular Probes C35011). A cell-based standard curve was first established, with the amount of fluorescence correlated to the quantity of cells in the wells. Cells were incubated with increasing concentrations of compounds, over a period 72 h. Positive (nivolumab) and negative (no rhPD-L1 Fc chimera) controls were performed to calibrate the assay. IC50 were determined for the restoration of proliferation by global curve fitting with Graphpad. Experiments were repeated three times and IC50 values averaged.

Data set [2] can be described thus: EPR DPPH free radical scavenging assay. Conditions: DPPH 100 µM, compound 2 to 90 µM. The procedure: (§1) We used two electron paramagnetic resonance (EPR)-based assays to compare the antioxidant potency of the compounds. The first assay was a free radical scavenging test with 1,1-diphenyl-2-picrylhydrazyl (DPPH) to monitor the decay in the EPR signal intensity in the presence of the diamagnetic hydrazine compound. The intensity of the typical EPR spectrum of DPPH (100 μM) decreases in the presence of increasing concentration of the test compounds (Figure 6). The attenuation of the EPR signal reflects the antioxidant effect, clearly visible with each compound. From the EPR data, the concentration of the compound required to reduce the signal intensity by 50% (EC50) was calculated. […] The second assay relies on the use of the spin-trapping agent DMPO (5,5-dimethyl-1-pyrroline N-oxide) to monitor the formation of an oxygen centered radical generated under Fenton conditions (hydrogen peroxide plus ferrous ions). We used methanol as a solvent, thus leading to a monitoring of the methoxy radical DMPO/^•OCH3 characterized with a typical six-line EPR signal with hyperfine coupling constants aN = 13.9 G and aH = 8.3 G (Figure 7). The decrease in the EPR signal was evaluated with the different compounds to compare their relative antioxidant capacity. […] For each compound, we calculated the reaction constants (kr in Table 2). The antioxidant capacity of compounds 4–5 was reduced compared to edaravone (1). Nevertheless, compound 5 maintains a significant activity, with a kr value reduced by a factor 2.6 compared to the reference product 1. […] The value obtained with EDA is consistent with that given in the literature and thus validates our measurements.
(§2) An X-band Brüker Elexsys E500 spectrometer operating at 9.86 GHz was used to perform CW-EPR experiments. CW-EPR spectra were recorded at room temperature with a microwave power of 5.024–10.02 mW and a modulation amplitude of 1–2 G that considers non-saturation conditions. The free radical scavenging molecule DPPH (1,1-diphenyl-2-picrylhydrazyl) and spin trap agent DMPO (5,5-dimethyl-1-pyrroline N-oxide) were used to monitor the antioxidant activity of the test compounds. The solution mixture (50 μL) was filled into a glass capillary, placed in 4 mm quartz EPR tubes for analysis. The inhibition of DPPH (%) was calculated with the equation: I (%) = ((I0 − I)/I0) × 100 where I0 is the area of the EPR spectrum of DPPH (control sample), and I the area of the DPPH spectrum with antioxidant compound. The rate constant for the reaction of antioxidant compounds with ^•OCH3 is expressed by the equation: 1/Ra = 1/Rf + ((Kr [AH])/(ka [DMPO] Rf)) where Rf, and Ra indicate EPR signal area (double integration of EPR signal) of ^•OCH3, DMPO/^•OCH3, respectively. ka and [DMPO] are constants, and a plot of 1/Ra vs. [AH] (concentration of antioxidant compound) gives a straight line with 1/Rf as an intercept and kr/(ka[DMPO]Rf) as the slope. The rate constant for the reaction of ^•OCH3 with antioxidant compounds (kr) is expressed by the equation: kr = (ka [DMPO] × slope)/− intercept.
Background: The DPPH test is a chemical assay of radical scavenging.

The target of data set [3] is T1, recombinant human PD-L1 protein (rhPD-L1) (Homo sapiens, UniProt Q9NZQ7).
T1 construct: purchased R&D Systems 9049-B7-100
T1 sequence (Q9NZQ7 19-239 limits assumed): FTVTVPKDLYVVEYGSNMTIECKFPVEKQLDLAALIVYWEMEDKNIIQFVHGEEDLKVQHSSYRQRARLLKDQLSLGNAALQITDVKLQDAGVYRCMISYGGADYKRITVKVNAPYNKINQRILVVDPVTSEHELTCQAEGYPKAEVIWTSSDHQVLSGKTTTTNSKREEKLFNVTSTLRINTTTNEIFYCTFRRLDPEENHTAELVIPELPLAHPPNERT
Further details: method as in printed. The conditions noted are these: background statement of the introduction, ref not given; cited from earlier work.

A short description of data set [4]: EPR spin-trapping assay with DMPO under Fenton conditions. The conditions noted are these: for DMPO kr / DMPO kr/ka: DMPO 1 mM; for DMPO kr: methanol, reaction with •OCH3; for DMPO kr/ka: ka (DMPO-•OH) = 4.3 × 10^9 M^−1 s^−1. The procedure:
as §1, §2

Data set [5] in a line: Aldehyde (4-HNE) reactivity by HRMS. Conditions: 180 min, 37 °C, [M–H]-. From the text:
Edaravone (1) is a reactive molecule known to form adducts with different aromatic aldehydes, such as formylpterin and vanillin [15, 19]. In aqueous solution, it forms mono- and bis-adducts with the aldehyde compound vanillin [20]. […] Here we have compared the reactivity of compounds 1–5 using another aldehyde with a major biological relevance, 4-hydroxynonenal. 4-HNE is a product of lipid peroxidation implicated in the pathogenesis of diverse human diseases, such as diabetes, aging-related diseases and cancers. […] Edaravone is known to react covalently with 4-HNE to form mono-, bis-, and tris-adducts in solution [25]. We used high-resolution mass spectrometry (HRMS) to monitor the formation of the covalent adducts generated with the phenyl-pyrazolones and 4-HNE after 3 h of incubation at physiological temperature in an aqueous buffer. The formation of mono-, bis-, and tris-adducts was detected unambiguously with each compound (Figure 8). A reaction scheme is represented in Figure 9 for compound 5. In each case, the pyrazolone compound (nucleophile) easily reacted with 4-HNE to generate the different species, each characterized by their corresponding mass (m/z), the ring-double-bond value (rdb, valence values of elements in structure), the signal intensity and the correspondence with the theoretical m/z value (Δppm) (Table 3). The different species can be easily identified, with the isotopic pattern characteristic for the presence of chlorine and carbon atoms (chlorine and carbon cluster isotopes). In all cases, the species formed were identified without any ambiguity from their relative abundances. […] These values were in accordance with the theorical abundances, calculated from the exactive software for the isotopic pattern of the ions from m/z = 489.13606 to m/z = 494.13323.
High resolution mass spectrometry (HRMS) and spectra were recorded with an Exactive Plus mass spectrometer (Thermo Fisher Scientific, San Jose, CA, USA) equipped with a heated electrospray ionisation probe (HESI -II). Each mass analyzer was calibrated with Pierce®ESI positive and negative ion calibration solutions each week (Thermo Fisher Scientific). Optimization of voltages, gas values, and temperatures applied for ion transfer and ionization was performed in negative mode. The tuning parameters were optimized separately with reaction mixture obtained from reaction of nucleophile with the aldehyde. This was completed by infusing first individual solutions of each nucleophile or the aldehyde at 10 pmol/µL. Each reaction mixture was performed during 180 min at 37 °C with the compound at 0.5 mM in phosphate buffer 10 mM, pH = 7.4 and then the reaction mixture was diluted 1/400 in MeOH. The solution was injected with a syringe at a flow rate of 10 µL/min. […]

Data set [6] addresses T2, PD-L1 dimers (His-labeled PD-L1 titrated with unlabeled His-PD-L1) (Homo sapiens, UniProt Q9NZQ7).
T2 construct: purchased Biotechne 9049-B7-100
In words: MST dimerization binding assay. The conditions noted are these: test compound 1 µM, labeled His-PD-L1 10 nM. From the text: These observations led us to prioritize compound 5 as a hit compound owing to its potent capacity to bind to PD-L1, to interrupt PD-1/PD-L1 signaling and to reactivate CTLL-2 cell proliferation. Moreover, we selected this compound for an additional reason: its unique capacity to promote dimerization of rhPD-L1. This later property was evidenced using a specific dimerization binding assay which monitors the formation of PD-L1 dimers from a His-labeled PD-L1 protein by MST. The use of a PD-L1 protein with a polyhistidine (6xHis) tag at the C-terminus allows the non-covalent, stable, and selective labeling of the protein with a red fluorescent dye, to facilitate the formation of PD-L1 dimers. […] There is no doubt that this compound is a robust inhibitor of the PD-1/PD-L1 checkpoint.
A labeled His-PD-L1 protein was titrated against an unlabeled His-PD-L1 protein with or without compounds of interest. The test compound (1 µM) and the His-labeled PD-L1 protein (10 nM) are kept constant whereas the unlabeled His-PD-L1 (1 µM) varies with a serial 1:1 ratio of 16 gradients. MST was performed using the same instrument as mentioned above. His-PD-L1 protein (Biotechne # 9049-B7-100) was diluted to 200 nM in commercial PBS-T buffer and was labeled as indicated above. The RED-tris-NTA dye was diluted in PBS-T to 100 nM. The mix was incubated at room temperature in the dark for 30 min. Capillaries were filled individually.

The target of data set [7] is T1, recombinant human PD-L1 protein (rhPD-L1). In words: Microscale thermophoresis (MST) binding assay. Conditions: rhPD-L1, n = 3, 1:1 binding model. (MST reads how a fluorescent partner responds to local heating, with and without ligand.)
Data set [8] deals with T3, interaction between PD-L1 and PD-1 (Homo sapiens, UniProt Q9NZQ7).
T3 construct: expressed in transfected cells; host or cells: CHO-K1
T3 sequence (Q9NZQ7 19-239 limits assumed): as above
The experiment in a line: FRET reporter assay, SHP-2-CFP / PD-1-YFP in CHO-K1 cells activated by rhPD-L1. Format: cell-based. The conditions noted are these: CHO-K1 cells co-transfected PD1-SHP2, PD-L1 10 µM, n = 5, read-out: Bioactivity (IC50), block of PD-L1/PD-1 interaction in cells.

Data set [9] is described as follows: Metabolic stability in mouse liver microsomes. In kind it is in vitro ADME. From the text:
The metabolic stability of the compounds in mice liver microsomes was investigated using liver microsomes from male mice (BD Gentest™) with propranolol as a positive control, as described previously. Mouse plasma CD-1 was used to investigate the plasma stability of the molecules, with enalapril as a positive control, as described recently.

Data set [10] is described as follows: Solubility. In kind it is physicochemical.

T2 sequence (Q9NZQ7 19-239 limits assumed): as above

In turn, `COc1nc(OCc2cccc(-c3ccccc3)c2C)ccc1CNCCNC(C)=O` [BMS-202, reference compound] returned an IC50 in [1] of 53 ± 17 nM.

By EC50 is commonly meant the concentration at which the effect is half-maximal. A higher EC50 goes with lower potency in that assay. `CC1=NN(c2ccccc2)C(=O)C1` [Compound 1, edaravone, reference compound] had an EC50 in data set [2] of 35800 nM. Further, the “Binding to PD-L1” value in data set [3] was “does not bind to PD-L1”. In addition, in data set [4], the DMPO kr is 25.9 10^10 M^−1 s^−1 and the DMPO kr/ka is 60. Further, in data set [5], the “HRMS intensity of remaining 4-HNE” value was 1.63 × 10^5.

`CC1=NN(c2ccc(Cl)cc2Cl)C(=O)C1` [Compound 2]: in data set [1] (Mus musculus, CTLL-2, 72 h), the IC50 is 53 ± 11 nM. In data set [2], this compound returned an EC50 of 36500 nM. In addition, in [4], the DMPO kr is on record as 19.3 10^10 M^−1 s^−1 and the DMPO kr/ka is given as 45.

One may read the melting point as the temperature, or range, at which the solid turns liquid. For `COc1ccccc1C1=NN(c2ccc(Cl)cc2Cl)C(=O)C1` [Compound 3, 1-(2,4-Dichlorophenyl)-3-(2-methoxyphenyl)-1H-pyrazol-5(4H)-one], the melting point was determined as 188 °C. For the same compound, in data set [1], the IC50 was found to be 79 ± 7 nM. In data set [1] (Mus musculus, CTLL-2, 72 h), this compound showed an IC50 of 70 nM. This compound also returned an EC50 in data set [2] of 34000 nM. In data set [5], the “HRMS intensity of remaining 4-HNE” value is 1.92 × 10^5. Also, the “Promotion of PD-L1 dimerization” value in data set [6] is “inactive”.

In general, Kd refers to the constant that tells how readily two partners part at equilibrium. In the case of `CCC1=NN(c2ccc(Cl)cc2Cl)C(=O)C1` [Compound 4, 1-(2,4-dichlorophenyl)-3-ethyl-1H-pyrazol-5(4H)-one], the melting point was found to be 160 °C. For the same compound, the Kd in data set [7] was 19 ± 3 nM. In addition, the “Reactivation of CTLL-2 cell proliferation” value in data set [1] (CTLL-2 cells with rhPD-L1) is “inactive”. For the same compound, in data set [2], the EC50 was 40900 nM. Besides, in [4], the DMPO kr is listed as 4.40 10^10 M^−1 s^−1 and the DMPO kr/ka is recorded as 10. Besides, in data set [8], the IC50 came out at 12 ± 5 nM. Further, in data set [5], the “HRMS intensity of remaining 4-HNE” value is recorded as 1.01 × 10^5. The “Promotion of PD-L1 dimerization” value in data set [6] was “inactive”.

For the compound `Oc1cc(-c2ccccc2F)nn1-c1ccc(Cl)cc1Cl` [Compound 5, 1-(2,4-Dichlorophenyl)-3-(2-fluorophenyl)-1H-pyrazol-5-ol], the melting point is 229 °C. In data set [7], the Kd amounted to 27 ± 4 nM. For the same compound, in data set [1] (Mus musculus, CTLL-2, 72 h), the IC50 came to 43 ± 9 nM. In addition, a half-maximal effect in data set [2] (EC50) was put at 38200 nM. In data set [4], the DMPO kr is given as 9.74 10^10 M^−1 s^−1 and the DMPO kr/ka is on record as 23. Further, in [4] (DMPO assay), the “kr value reduced by a factor compared to reference product 1” value was determined as 2.6. Further, the “Microsomal stability compared to compound 3” value in data set [9] was “slightly improved”. Further, the “Solubility compared to compound 3” value in data set [10] is reported as “slightly improved”. Moreover, the IC50 in data set [8] turned out to be 74 ± 7 nM. For the same compound, the “HRMS intensity of remaining 4-HNE” value in data set [5] is reported as 2.11 × 10^5. In addition, the “Promotion of PD-L1 dimerization” value in data set [6] was “promoted the dimerization of PD-L1 in a dose-dependent manner”.

Consider atezolizumab, for which, in data set [8], the IC50 is 47 ± 11 nM.
